Patent US4451475A, “Cyclic sulphenamide compounds, their production and their medicinal use” (Bayer Aktiengesellschaft, priority 1981, dated 1984)

Key:
leucocytes = assay: Inhibition of the migration of leucocytes after local administration by a sponge soaked in active compound under the dorsal skin of rats; format: in vivo; conditions: 10 mg/rat
Excerpt: The sulphenamides according to the present invention are also active in vivo. […] The following Table 2 summarises the activities of some illustrative sulphenamides after local administration, by introduction of a piece of sponge soaked in the active compound under the dorsal skin of rats.

platelet lipoxygenase = biological target: T1, platelet lipoxygenase (Homo sapiens, UniProt P18054); assay: Inhibition of the platelet lipoxygenase (synthesis of HETE), metabolism of radioactively labelled arachidonic acid by washed human platelets; format: cell-based; conditions: in vitro
T1 construct: metabolism of radioactively labelled arachidonic acid by washed human platelets; endogenous in cells; host or cells: washed human platelets
T1 sequence (P18054 1-663): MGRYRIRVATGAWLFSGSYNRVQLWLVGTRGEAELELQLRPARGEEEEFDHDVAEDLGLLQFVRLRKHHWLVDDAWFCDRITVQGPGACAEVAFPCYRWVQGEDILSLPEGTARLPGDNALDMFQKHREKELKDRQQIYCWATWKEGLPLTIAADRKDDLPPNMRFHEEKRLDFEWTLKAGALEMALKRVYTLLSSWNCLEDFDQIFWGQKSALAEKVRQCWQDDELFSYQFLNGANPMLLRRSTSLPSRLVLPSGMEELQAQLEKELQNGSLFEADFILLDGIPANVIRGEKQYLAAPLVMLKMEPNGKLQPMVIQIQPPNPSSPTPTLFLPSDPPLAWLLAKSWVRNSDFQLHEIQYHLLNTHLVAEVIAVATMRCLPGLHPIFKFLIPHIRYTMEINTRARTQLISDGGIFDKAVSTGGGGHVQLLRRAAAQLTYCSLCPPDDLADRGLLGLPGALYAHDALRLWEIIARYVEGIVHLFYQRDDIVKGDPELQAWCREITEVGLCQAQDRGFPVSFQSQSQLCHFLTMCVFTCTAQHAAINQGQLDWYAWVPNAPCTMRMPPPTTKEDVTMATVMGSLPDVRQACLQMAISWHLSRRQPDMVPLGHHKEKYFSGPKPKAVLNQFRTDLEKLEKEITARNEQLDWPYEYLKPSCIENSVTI
Method: Use is made in this test method of the metabolism of radioactively labelled arachidonic acid by washed human platelets. In this in vitro test, the radioactively labelled metabolites are extracted from the reaction mixture and separated by thin layer chromatography. The autoradiogram is evaluated on a thin layer scanner. Under these test conditions, the labelled metabolites are separated from the unreacted arachidonic acid and are subsequently quantitatively evaluated. The distribution of the radioactivity in the cyclooxygenase products, formed during metabolism, thromboxane B2 (TXB2) and 12-hydroxy-5,8,10-heptadecatrienoic acid (HHT) and the lipoxygenase product 12-hydroxy-5,8,11,14-eicosatetraenoic acid (HETE), as influenced by the inhibitors, gives a measure of the inhibition of the enzymes.
The inhibition of lipoxygenase by the sulphenamides according to the invention can be measured by the inhibition of the synthesis of HETE.

[1] = system: lipoxygenase; cyclooxygenase; conditions: in words; one statement for all four named inhibitors; cited from earlier work

Minimum effective inhibitory concentration (at least 50% inhibition), inhibition of the platelet lipoxygenase (synthesis of HETE) (platelet lipoxygenase)	Structure (SMILES)	Inhibition of the migration of leucocytes (control = 0%) (leucocytes)	Selectivity/potency of known inhibitors of lipoxygenase [1]
10^-6 g/ml	O=C1OCCN1Sc1ccccc1 [Example 2, 3-phenylthio-oxazolidin-2-one]	55%	
	CCCCCC=CCC=CCC=CCC=CCCCC(=O)O [5,8,11,14-eicosatetraenoic acid]		either simultaneously inhibitors of cyclooxygenase or only active at very high concentrations
	CC(C)(C)c1ccc(SN2CCOC2=O)cc1 [Example 5, 3-(4-tert.-butylphenylthio)-oxazolidin-2-one]	72%	
10^-7 g/ml	O=C1OCCN1Sc1ccc(Cl)cc1 [Example 4, 3-(4-chlorophenylthio)-oxazolidin-2-one]	80%	
	O=C1CCN(c2ccccc2)N1 [phenidone]		either simultaneously inhibitors of cyclooxygenase or only active at very high concentrations
	CC(Cc1ccc(O)c(O)c1)C(C)Cc1ccc(O)c(O)c1 (stereo not drawn) [nordihydroguaiaretic acid]		either simultaneously inhibitors of cyclooxygenase or only active at very high concentrations
	O=c1scc(-c2ccccc2)n1Sc1ccc(Cl)cc1 [Example 10, 3-(4-chlorophenylthio)-4-phenylthiazolin-2-one]	53%	
